Source: publication PMC5863483, “Low HLA binding of diabetes-associated CD8+ T-cell epitopes is increased by post translational modifications” (BMC Immunology, 2018)
Read-outs that look alike come from different tables or passages of the source. Where no end group is shown, it is not given here.

Biological target: HLA-A*02:01 (Homo sapiens, UniProt P04439, D140Y/D185E/D98H/E176V/E277Q/G131W/G231S/I119V/I121R/I166T/I218V/L300P/L318F/N151K/N90K/P208A/P217A/Q86G/Q94H/R138H/R169H/T345S)
Test: HLA-peptide competition binding assay, A*02:01
[1] = unmodified (WT) insulin peptide, competition binding assay, a dash indicates IC50 >40,000 nM, read-out: A*02:01 binding (IC50 nM) WT
[2] = read-out: IC50 nM, target assay A*02:01
[3] = read-out: A*02:01 binding (IC50 nM) WT
[4] = unmodified (wild type) insulin-derived peptide, radiolabeled ligand competition, purified MHC, two-day incubation, three or more independent experiments, read-out: A*02:01 binding, WT
[5] = post-translationally modified insulin peptide, competition binding assay, a dash indicates IC50 >40,000 nM, read-out: A*02:01 binding (IC50 nM) Modified

| Sequence | IC50 [2] [nM] | other results |
| --- | --- | --- |
| GSLQKRGIVE [GSLQKRGIVE] |  | IC50 [1]: > 40000 nM |
| GVFIQVYEV [reference compound] | 460 |  |
| HIAGSLAVV [reference compound] | 216 |  |
| HLASEKVYAI [reference compound] | 4060 |  |
| HLCGSHLVE |  | IC50 [1]: > 40000 nM |
| HLCGSHLVEA [reference compound] |  | IC50: 7540 nM |
| HLSYHRLLPL [reference compound] | 4260 |  |
| HLSYHWLLPL [reference compound] | 3820 |  |
| HLVEALYLVC |  | IC50 [3]: 692 nM |
| ILAVDGVLSV [reference compound] | 2.2 |  |
| ILDKKVEKV [reference compound] | 11200 |  |
| ILKDFSILL [reference compound] | 39 |  |
| ILMHCQTTL [reference compound] | 478 |  |
| ILVLASTITI [reference compound] | 675 |  |
| IQATVMIIV [reference compound] | 9040 |  |
| KCQEVLAWL [reference compound] | > 40000 |  |
| KLQVFLIVL [reference compound] | 1370 |  |
| KMYAFTLES [reference compound] | 880 |  |
| KTRREAEDL |  | IC50 [1]: > 40000 nM |
| KTRREAEDLQ |  | IC50 [1]: > 40000 nM |
| KVLHELFGMDI [reference compound] | 11 |  |

| Sequence | IC50 [2] [nM] | other results |
| --- | --- | --- |
| LALEGSLQKR |  | IC50 [4]: > 40000 nM |
| LALWGPDPAA [reference compound] | 30300 |  |
| LASEKVYAI [reference compound] | 6930 |  |
| LASEKVYTI [reference compound] | 1250 |  |
| LCGSHLVEA |  | IC50 [3]: 1350 nM |
| LCGSHLVEAL [LCGSHLVEAL, reference compound] | > 40000 | IC50 [1]: > 40000 nM |
| LEGSLQKRG |  | IC50 [1]: > 40000 nM |
| LEGSLQKRGI |  | IC50 [1]: > 40000 nM |
| LIFDLGGGT [reference compound] | 5420 |  |
| LLDVAPLSL [reference compound] | 51 |  |
| LLGRFELIGI [reference compound] | 233 |  |
| LLHVHHSCPL [reference compound] |  | IC50: 7840 nM |
| LLIDLTSFL [reference compound] | 8.1 |  |
| LLLLDVAPL [reference compound] | 10 |  |
| LLPPLLEHL [reference compound] | 444 |  |
| LLQEYNWEL [reference compound] | 35 |  |
| LLQVHHSCPL [reference compound] |  | IC50: 3090 nM |
| LLSILCIWV [reference compound] |  | IC50: 734 nM |
| LLSLFSLWL [reference compound] |  | IC50: 152 nM |
| LMFWSPSHSCA [reference compound] | 143 |  |
| LMGDKSENV [reference compound] |  | IC50: 7370 nM |

| Sequence | IC50 [2] [nM] | other results |
| --- | --- | --- |
| LNIDLLWSV [reference compound] | 684 |  |
| LQKRGIVEQ |  | IC50 [1]: > 40000 nM |
| LQKRGIVEQC |  | IC50 [1]: > 40000 nM |
| LVCGERGFF |  | IC50 [1]: > 40000 nM |
| LVCGERGYF |  | IC50 [5]: > 40000 nM |
| LVCGERGYFY |  | IC50 [5]: > 40000 nM |
| LVEALYLVC |  | IC50: 11800 nM |
| LVEALYLVCG |  | IC50 [3]: 23300 nM |
| LWMRLLPLLA |  | IC50 [4]: 406 nM |
| LYLVCGERG |  | IC50 [4]: 28000 nM |
| LYLVCGERGY |  | IC50 [5]: > 40000 nM |
| MALWMRLLP |  | IC50 [4]: 4540 nM |
| MALWMRLLPL |  | IC50: 1260 nM |
| MRLLPLLAL [MRLLPLLAL] |  | IC50 [3]: 228 nM |
| MRLLPLLALL |  | IC50 [3]: 10 nM |
| MVWESGCTV [reference compound] | 126 |  |
| NLAQDLATV [reference compound] | 67 |  |
| NLFLFLFAV [reference compound] | 1230 |  |
| NLLGRFELI [reference compound] | 764 |  |
| NLLGRFELIGI [reference compound] | 1.8 |  |
